# Tests used:
# [1] = target: PDE 4 (phosphodiesterase IV); experiment: PDE 4 inhibiting effect (3H-cAMP hydrolysis, PDE 4 active fraction from Balb/c mouse liver); format: biochemical; details: PDE 4 fraction from Balb/c mice liver, 0.064 μM cAMP, 2 hours at 25° C.; read-out: PDE4 IC50
# Summary of the method: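 Activity was measured as 3H-cAMP hydrolysis, with Sephadex-QAE added after the reaction. The enzyme was a PDE4-active fraction from 12-week male Balb/c mouse liver, taken from the ultracentrifuged soluble fraction by DEAE sepharose chromatography (0.05-1 M sodium acetate gradient, pH 6.5 buffer).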
# [2] = target: PDE 7 (phosphodiesterase VII) (Homo sapiens (Human), UniProt Q13946); experiment: PDE 7 inhibiting effect (3H-cAMP hydrolysis, PDE 7 active fraction from MOLT-4 cells); format: biochemical; details: PDE 7 fraction from MOLT-4 cells, 0.064 μM cAMP, 10 μM rolipram, 2 hours at 25° C.; read-out: PDE7 IC50
# Summary of the method: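 ³H-cAMP hydrolysis by a PDE7-active fraction was followed, and the reaction was worked up with a Sephadex-QAE suspension (10 mM HEPES-Na, pH 7.0). Enzyme came from MOLT-4 cell soluble extract (pH 7.5 Tris buffer, 100,000×G supernatant), fractionated by HiTrap Q anion exchange with a 0–0.8 M NaCl gradient.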
# PDE 7 (phosphodiesterase VII), sequence (Q13946 whole entry): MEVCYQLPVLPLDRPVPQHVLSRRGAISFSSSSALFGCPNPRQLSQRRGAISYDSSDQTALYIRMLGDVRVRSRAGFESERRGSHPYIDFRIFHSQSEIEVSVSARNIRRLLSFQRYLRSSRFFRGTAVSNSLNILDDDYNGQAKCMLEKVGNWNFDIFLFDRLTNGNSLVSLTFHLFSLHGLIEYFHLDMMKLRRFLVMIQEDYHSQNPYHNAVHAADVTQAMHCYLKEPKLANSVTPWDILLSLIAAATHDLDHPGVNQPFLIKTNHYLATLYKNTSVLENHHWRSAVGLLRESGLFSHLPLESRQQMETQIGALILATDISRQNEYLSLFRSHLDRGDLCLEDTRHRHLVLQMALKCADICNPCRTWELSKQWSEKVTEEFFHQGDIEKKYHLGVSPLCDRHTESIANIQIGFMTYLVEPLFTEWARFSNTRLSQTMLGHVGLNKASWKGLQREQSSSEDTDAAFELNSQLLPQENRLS
IC50 [1] [nM],IC50 [2] [nM],SMILES
7000,63,"Cc1nn(C2CCOCC2)c2sc(C(=O)N[C@H]3CC[C@H](N4CCNC(=O)C4)CC3)cc12 [Example 417, 3-Methyl-N-[trans-4-(3-oxo-piperazinyl)cyclohexyl]-1-tetrahydro-2H-pyran-4-yl-1H-thieno[2,3-c]pyrazole-5-carboxamide]"
5700,29,"Cc1nn(C2CCOCC2)c2sc(C(=O)N[C@H]3CC[C@H](N4CCN(C)C(=O)C4)CC3)cc12 [Example 419, 3-Methyl-N-[trans-4-(4-methyl-3-oxo-1-piperazinyl)cyclohexyl]-1-tetrahydro-2H-pyran-4-yl-1H-thieno[2,3-c]pyrazole-5-carboxamide]"
8100,72,Cc1nn(C2CCOCC2)c2sc(C(=O)N[C@H]3CC[C@H](N4CCC(CO)CC4)CC3)cc12 [Example 423]
13000,90,"Cc1nn(C2CCOCC2)c2sc(C(=O)N[C@H]3CC[C@H](N4CCC(O)CC4)CC3)cc12 [Example 425, N-[trans-4-(4-Hydroxy-1-piperidinyl)cyclohexyl]-3-methyl-1-tetrahydro-2H-pyran-4-yl-1H-thieno[2,3-c]pyrazole-5-carboxamide]"
9700,50,"Cc1nn(C2CCOCC2)c2sc(C(=O)N[C@H]3CC[C@H](N4CCC(C(=O)N(C)C)CC4)CC3)cc12 [Example 428, N-(trans-4-{4-[(Dimethylamino)carbonyl]-1-piperidinyl}cyclohexyl)-3-methyl-1-tetrahydro-2H-pyran-4-yl-1H-thieno[2,3-c]pyrazole-5-carboxamide]"
7200,30,"CCN1CCN([C@H]2CC[C@H](NC(=O)c3cc4c(C)nn(C5CCOCC5)c4s3)CC2)CC1=O [Example 436, N-[trans-4-(4-Ethyl-3-oxo-1-piperazinyl)cyclohexyl]-3-methyl-1-tetrahydro-2H-pyran-4-yl-1H-thieno[2,3-c]pyrazole-5-carboxamide]"
28000,97,"Cc1nn(C2CCOCC2)c2sc(C(=O)Nc3ccc(N4CCN(C)CC4=O)cc3)cc12 [Example 440, 3-Methyl-N-[4-(4-methyl-2-oxo-piperazinyl)phenyl]-1-tetrahydro-2H-pyran-4-yl-1H-thieno[2,3-c]pyrazole-5-carboxamide]"

# Reference: patent US8901315B2, “Thienopyrazole derivative having PDE7 inhibitory activity” (Daiichi Sankyo Company, Limited, priority 2004, dated 2014)
